Structures can show the parent of a compound that is named as a salt. Where two headings read alike, the source gives them in different places.
Legend:
human CaSR = molecular target: T1, human CaSR (Homo sapiens, UniProt P41180); assay: Human calcium sensing receptor (CaSR) agonism test (Fluo-3 / FLIPR); type: cell-based; details: HEK 293 cell stably expressing human CaSR; 0.5 mM Ca2+; 2 mM Ca2+ group = 100%; read-out: EC50 (compound concentration showing 50% human CaSR agonistic activity)
T1 construct: a human CaSR open reading frame (ORF) was contained in the pcDNA3.1/Zeo(+) vector; expressed in transfected cells
T1 sequence (P41180 20-1078): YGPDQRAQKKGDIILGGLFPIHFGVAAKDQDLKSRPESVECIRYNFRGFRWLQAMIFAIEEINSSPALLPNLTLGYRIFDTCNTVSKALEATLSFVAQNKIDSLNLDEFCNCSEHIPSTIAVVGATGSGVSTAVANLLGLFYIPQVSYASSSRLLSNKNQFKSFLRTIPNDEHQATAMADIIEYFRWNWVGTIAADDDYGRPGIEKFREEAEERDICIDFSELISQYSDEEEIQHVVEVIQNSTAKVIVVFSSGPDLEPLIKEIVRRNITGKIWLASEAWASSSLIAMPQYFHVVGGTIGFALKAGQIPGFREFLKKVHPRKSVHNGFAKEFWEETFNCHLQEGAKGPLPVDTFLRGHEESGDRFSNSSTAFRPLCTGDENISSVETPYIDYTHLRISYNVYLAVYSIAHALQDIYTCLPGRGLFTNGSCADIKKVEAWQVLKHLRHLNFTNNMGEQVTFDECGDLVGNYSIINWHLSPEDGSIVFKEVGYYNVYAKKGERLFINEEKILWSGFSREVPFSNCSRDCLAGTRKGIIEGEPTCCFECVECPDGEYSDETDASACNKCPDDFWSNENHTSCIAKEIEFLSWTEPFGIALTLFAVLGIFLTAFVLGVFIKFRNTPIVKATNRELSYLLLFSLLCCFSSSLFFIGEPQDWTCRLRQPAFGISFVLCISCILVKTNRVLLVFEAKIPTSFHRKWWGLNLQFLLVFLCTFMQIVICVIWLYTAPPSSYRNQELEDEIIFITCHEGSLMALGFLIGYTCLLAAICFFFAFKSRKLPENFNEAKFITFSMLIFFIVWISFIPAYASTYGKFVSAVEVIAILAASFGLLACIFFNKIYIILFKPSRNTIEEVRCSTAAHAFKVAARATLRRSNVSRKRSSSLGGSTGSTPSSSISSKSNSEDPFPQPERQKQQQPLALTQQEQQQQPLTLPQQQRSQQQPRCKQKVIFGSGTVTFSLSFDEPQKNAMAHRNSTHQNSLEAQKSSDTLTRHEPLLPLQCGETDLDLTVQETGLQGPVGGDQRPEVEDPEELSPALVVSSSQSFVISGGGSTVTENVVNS
Source text: Test 1. Human calcium sensing receptor (CaSR) agonism test
1) Preparation of Human CaSR Expression Vector
A DNA fragment coding for human CaSR was cloned in the standard method.
Illustratively, using 203 to 2387 of NM_000388 as a DNA fragment D4, and 2210 to 3633 as a DNA fragment B2, they were amplified using a human kidney cDNA (manufactured by Invitrogen) as the template and using a DNA polymerase (a registered trade name: Pyrobest, manufactured by Takara Bio), and respectively cloned into a pCR2.1 vector using a pCR2.1-Topo vector (manufactured by Invitrogen). Next, the DNA fragments prepared by digesting the pCR2.1-D4 with SpeI and XbaI were inserted into the same sites of pcDNA3.1/Zeo(+) vector. Successively, the fragments prepared by digesting pCR2.1-B2 with SacI and XbaI were inserted into the SacI and XbaI sites of previously prepared pcDNA3.1/Zeo(+)-D4(SpeI-XbaI), thereby obtaining a human CaSR expression vector pcDNA3.1/Zeo(+)-hCaSR in which a human CaSR open reading frame (ORF) was contained in the pcDNA3.1/Zeo(+) vector.
2) Preparation of Human CaSR Expression Cell
The human CaSR expression vector was transferred into a HEK 293 cell using a transfection reagent (registered trademark: FuGene 6, manufactured by Roche Diagnostics). After the gene transfer, this was cultured in a DMEM (manufactured by Invitrogen) medium containing 40 μg/ml Zeocin (registered trademark, manufactured by Invitrogen) and a 10% fetal bovine serum at 37° C. for 2 weeks in the presence of 5% CO2, thereby obtaining Zeocin-resistant clones. A human CaSR stably expressing HEK 293 clone was obtained from these clones by selection using the responsiveness to extracellular Ca^2+ as an index.
3) Human CaSR Agonism Test
The HEK 293 cell stably expressing human CaSR was inoculated into a poly-D-lysine-coated black clear bottom 96 well plate (manufactured by BD Biosciences). Hanks' balanced salt solution (HBSS) (Ca^2+ (−), Mg^2+ (−), manufactured by Invitrogen) containing a 20 mM HEPES (2-[4-(2-hydroxyethyl)-1-piperazinyl]ethanesulfonic acid) buffer (pH 7.4), 2.5 mM of probenecid (manufactured by Sigma), and 0.1% of bovine serum albumin was prepared as a washing buffer. After the inoculation and the subsequent overnight culturing, the medium was discarded, the washing buffer supplemented with 1 mM CaCl2 and 10 μM Fluo-3 AM (trade name, manufactured by DOJINDO) was added thereto in 100 μl per well portions, and then the incubation was carried out at 37° C. for 1 hour in the presence of 5% CO2. This was washed twice with 200 μl of the washing buffer, replaced by 100 μl of the washing buffer supplemented with 0.5 mM CaCl2 and allowed to stand still for 10 minutes, and then the responsiveness to each compound to be evaluated was detected using a plate reader for fluorometry image analysis use (registered trademark: FLIPR, manufactured by Molecular Devices). In this connection, the compound to be evaluated was used by optionally diluting with the washing buffer supplemented with 0.5 mM Ca^2+.
The human CaSR agonistic activity strength of each compound to be evaluated was calculated by defining the solvent group as 0% and the 2 mM of Ca^2+ in the final concentration group as 100%, and the compound concentration showing 50% activity (EC50) was calculated from a concentration-activity curve by the method of least squares.

CYP2D6 = CYP2D6 (Homo sapiens, UniProt P10635); assay: Human CYP2D6 inhibition test; type: biochemical; parameters: purchased BD Gentest 456217; details: CYP2D6 7.5 pmol/mL; fluorescence substrate AMMC 1.5 μM; 37° C. 30 minutes
Protocol: Test 3. Human CYP2D6 Inhibition Test
Inhibitory activity evaluation for CYP2D6 was carried out by measuring it in accordance, roughly, with a reference (“Drug Metabolism and Disposition”, 2001, vol. 29, p. 1196-1200).
Final concentrations of the reagents in the enzyme reaction solution were respectively set to CYP2D6=7.5 pmol/mL (manufactured by BD Gentest, Catalog No. 456217), reduced type nicotinamide adenine dinucleotide phosphate (NADPH) regeneration system (0.0081 mM nicotinamide adenine dinucleotide phosphate (NADP+), 0.41 mM glucose-6-phosphate, 0.41 mM MgCl2, 0.4 units glucose-6-phosphate dehydrogenase), and a fluorescence substrate AMMC=1.5 μM, 100 mM potassium phosphate buffer (pH 7.4). Each compound was made into a 50% acetonitrile solution and added to the enzyme reaction solution (acetonitrile final concentration 2.5%). The enzyme reaction was carried out at 37° C. for 30 minutes, the reaction was stopped using a stopping liquid (0.1 M tris(hydroxymethyl)aminomethane (Tris-base):acetonitrile=20:80), and the fluorescence intensity was then measured. The concentration showing 50% inhibition (IC50) was calculated from the thus obtained fluorescence intensity, by defining the enzyme activity at a time of no compound addition as 100%.

[1] = Measurement of rat plasma calcium concentration; type: in vivo; details: read-out: Rat plasma calcium concentration reducing ratio (%) 2 hours after administration (3 mg/kg)
Protocol: Test 2. Measurement of Rat Plasma Calcium Concentration and Plasma PTH Concentration
The compounds of the present invention were administered to rats, and their influences upon the plasma calcium concentration and the plasma PTH concentration were examined. The test was carried out by single oral administration of the compounds of the present invention and the control compounds to 5 to 6 normal male rats, or male rats with renal failure, respectively As a vehicle group, 0.5% of a methyl cellulose (MC) solution was administered at a dose of 5 ml/kg. As a reference compound, cinacalcet was dissolved in the MC solution and administered at a dose of 3 mg/kg. Each of the compounds of the present invention was dissolved or suspended in the MC solution, and administered at a dose of 1, 3 or 10 mg/kg.
Blood samples were collected from the orbital venous plexus under ether anesthesia before the administration and 2 hours, 4 hours, or 8 hours in some cases, after the administration, and the plasma calcium concentration was measured using Calcium E-Test Wako (manufactured by Wako Pure Chemical Industries), and the plasma PTH concentration was measured using a Rat Intact PTH ELISA Kit (manufactured by Immutopics).

[2] = normal male rats, single oral administration 3 mg/kg, 2 hours after administration

Sequence of CYP2D6 (P10635 whole entry): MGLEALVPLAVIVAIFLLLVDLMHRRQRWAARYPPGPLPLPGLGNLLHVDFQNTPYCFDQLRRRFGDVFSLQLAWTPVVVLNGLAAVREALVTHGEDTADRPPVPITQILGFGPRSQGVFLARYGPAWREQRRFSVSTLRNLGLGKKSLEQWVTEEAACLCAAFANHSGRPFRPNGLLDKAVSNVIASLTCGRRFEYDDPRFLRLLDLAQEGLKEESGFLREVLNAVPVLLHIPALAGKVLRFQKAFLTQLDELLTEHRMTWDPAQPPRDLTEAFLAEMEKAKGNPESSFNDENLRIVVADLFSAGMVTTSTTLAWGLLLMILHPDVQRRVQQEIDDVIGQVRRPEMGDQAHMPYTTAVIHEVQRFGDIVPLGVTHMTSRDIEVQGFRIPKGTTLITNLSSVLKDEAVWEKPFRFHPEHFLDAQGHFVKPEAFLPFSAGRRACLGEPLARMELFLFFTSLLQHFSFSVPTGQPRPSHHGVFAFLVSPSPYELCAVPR

EC50 (human CaSR) [nM] | IC50 (CYP2D6) [nM] | Structure (SMILES) | inhibition in vivo at 3 mg/kg ([1]; po, 2 h) [%] | inhibition in vivo at 3 mg/kg [1, 2] [%]
1.8 | ≥ 20000 | COc1cc(C(=O)O)ccc1NC(=O)N1CCC(c2ccccc2)C(CN[C@H](C)c2cccc3ccccc23)C1 (stereo partly drawn) [Example 3, 3-methoxy-4-({[3-({[(1R)-1-(1-naphthyl)ethyl]amino}methyl)-4-phenylpiperidin-1-yl]carbonyl}amino)benzoic acid] | – | –
5.5 | ≥ 20000 | C[C@@H](NCC1CCN(c2cccc(C(=O)O)n2)CC1c1ccccc1)c1cccc2ccccc12 (stereo partly drawn) [Example 30, 6-[4-({[(1R)-1-(1-naphthyl)ethyl]amino}methyl)-3-phenylpiperidin-1-yl]pyridine-2-carboxylic acid hydrochloride] | – | –
5 | – | C[C@@H](NCC1CCN(c2ncc(C(=O)O)cc2Cl)CC1c1ccccc1)c1cccc2ccccc12 (stereo partly drawn) [Example 31, 5-chloro-6-[4-({[(1R)-1-(1-naphthyl)ethyl]amino}methyl)-3-phenylpiperidin-1-yl]nicotinic acid hydrochloride] | – | 24
8.1 | ≥ 20000 | C[C@@H](NCC1CCN(c2cccc(C(=O)O)c2)CC1c1ccccc1)c1cccc2ccccc12 (stereo partly drawn) [Example 34, 3-[4-({[(1R)-1-(1-naphthyl)ethyl]amino}methyl)-3-phenylpiperidin-1-yl]benzoic acid hydrochloride] | – | –
2.6 | – | C[C@@H](NCC1CCN(c2nc(C(=O)O)cs2)CC1c1ccccc1)c1cccc2ccccc12 (stereo partly drawn) [Example 39, 2-[4-({[(1R)-1-(1-naphthyl)ethyl]amino}methyl)-3-phenylpiperidin-1-yl]-1,3-thiazole-4-carboxylic acid hydrochloride] | – | 23

Continued, compound first:

Structure (SMILES) | EC50 (human CaSR) [nM] | IC50 (CYP2D6) [nM] | inhibition in vivo at 3 mg/kg ([1]; po, 2 h) [%] | inhibition in vivo at 3 mg/kg [1, 2] [%]
C[C@@H](NCC1CN(C(=O)Nc2ccc(C(=O)O)cc2)CCC1c1cccc(F)c1)c1cccc2ccccc12 (stereo partly drawn) [Example 13, 4-({[4-(3-fluorophenyl)-3-({[(1R)-1-(1-naphthyl)ethyl]amino}methyl)piperidin-1-yl]carbonyl}amino)benzoic acid hydrochloride] | 2.9 | ≥ 20000 | – | –
C[C@@H](NCC1CCN(C(=O)Oc2ccc(C(=O)O)cc2)CC1c1ccccc1)c1cccc2ccccc12 (stereo partly drawn) [Example 25, 4-({[4-({[(1R)-1-(1-naphthyl)ethyl]amino}methyl)-3-phenylpiperidin-1-yl]carbonyl}oxy)benzoic acid hydrochloride] | 13 | ≥ 20000 | 17 | –
C[C@@H](NCC1CCN(c2ncc(C(=O)O)cc2Cl)CC1c1ccccc1F)c1cccc2ccccc12 (stereo partly drawn) [Example 32, 5-chloro-6-[3-(2-fluorophenyl)-4-({[(1R)-1-(1-naphthyl)ethyl]amino}methyl)piperidin-1-yl]nicotinic acid hydrochloride] | 7.5 | – | – | 34
COc1cccc([C@@H](C)NCC2CCN(c3ncc(C(=O)O)cc3Cl)CC2c2ccccc2)c1 (stereo partly drawn) [Example 33, 5-chloro-6-[4-({[(1R)-1-(3-methoxyphenyl)ethyl]amino}methyl)-3-phenylpiperidin-1-yl]nicotinic acid hydrochloride] | 20 | – | – | 29
C[C@@H](NCC1CCN(c2c(F)cc(-c3nnn[nH]3)cc2F)CC1c1ccccc1)c1cccc2ccccc12 (stereo partly drawn) [Example 53, (1R)—N-({1-[2,6-difluoro-4-(1H-tetrazol-5-yl)phenyl]-3-phenylpiperidin-4-yl}methyl)-1-(1-naphthyl)ethaneamine hydrochloride] | 3.8 | – | – | 20
C[C@@H](NCC1CCN(c2c(F)cc(C(=O)O)cc2F)CC1c1ccccc1)c1csc2ccccc12 (some centres unmarked) [Example 87] | 11 | ≥ 20000 | – | –
C[C@@H](NCC1CCN(c2cc(C(F)(F)F)c(C(=O)O)cn2)CC1c1cccc(F)c1)c1cccc2ccccc12 (some centres unmarked) [Example 98] | 17 | ≥ 20000 | – | –
C[C@@H](NCC1CCN(c2ccc(C(=O)O)cn2)CC1c1ccccc1F)c1cccc2ccccc12 (some centres unmarked) [Example 104] | 14 | – | – | –

Source: patent publication US8153658B2, “Piperidine derivative or salt thereof” (Astellas Pharma, Inc., priority 2006, dated 2012)
